From PMC12914920, “Novel glycine amides, semicarbazides and fluoroallylamines as inhibitors of the amine oxidase vascular adhesion protein-1 (VAP-1)” (RSC Medicinal Chemistry, 2026)

Biological target: T1, VAP-1 in human plasma (Homo sapiens, UniProt Q16853)
T1 construct: from tissue; host or cells: human whole plasma from donated blood (Münster University Hospital)
T1 sequence (Q16853 27-763 limits assumed): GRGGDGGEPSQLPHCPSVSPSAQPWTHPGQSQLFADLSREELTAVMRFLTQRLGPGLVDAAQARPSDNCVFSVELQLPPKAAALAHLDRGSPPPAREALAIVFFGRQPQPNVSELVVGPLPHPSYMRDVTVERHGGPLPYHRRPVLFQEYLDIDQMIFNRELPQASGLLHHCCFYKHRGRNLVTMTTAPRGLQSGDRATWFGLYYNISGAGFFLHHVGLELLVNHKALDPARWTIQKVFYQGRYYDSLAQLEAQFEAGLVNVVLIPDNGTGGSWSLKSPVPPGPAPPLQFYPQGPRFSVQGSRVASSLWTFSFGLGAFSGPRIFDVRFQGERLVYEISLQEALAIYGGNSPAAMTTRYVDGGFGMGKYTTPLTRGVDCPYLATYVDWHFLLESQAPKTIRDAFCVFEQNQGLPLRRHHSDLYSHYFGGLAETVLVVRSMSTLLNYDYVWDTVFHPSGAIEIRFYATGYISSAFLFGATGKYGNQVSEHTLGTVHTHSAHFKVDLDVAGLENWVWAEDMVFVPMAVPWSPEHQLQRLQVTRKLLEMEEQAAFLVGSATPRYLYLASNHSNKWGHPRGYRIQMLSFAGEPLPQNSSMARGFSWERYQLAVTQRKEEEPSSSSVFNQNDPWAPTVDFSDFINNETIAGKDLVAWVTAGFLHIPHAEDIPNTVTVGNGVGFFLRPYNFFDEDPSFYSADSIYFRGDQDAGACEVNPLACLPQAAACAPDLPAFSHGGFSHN
Assay: Inhibition of VAP-1 activity in human whole plasma
Type: biochemical
Details: 15 min pre-incubation of enzyme and inhibitor

- IC50: 320 nM
SMILES: N#Cc1ccc(-c2nnn(Cc3cccc(CNC(=O)CN)c3)n2)cc1 [Compound 63]
